# Assay results as given in US8551961B2, “Localized delivery of cardiac inotropic agents” (Massachusetts Institute of Technology, priority 2005, dated 2013).
# Entries after “also recorded” stand apart in the source; their conditions may differ.
# Tested on: Sprague Dawley rats
# Experiment: Pericardial application of dobutamine to the left ventricular free wall in anesthetized rats, hemodynamic recording
# Format: in vivo, rat
# Source text: Sprague Dawley rats ([…]) were anesthetized with an intraperitoneal injection of ketamine and xylazine. The rat was laid on a heating pad and maintained euthermic with warming lights. A 24 gauge intravenous catheter was placed in the tail vein and Ringer's lactate solution (LR) was infused at 10 cc/hr. The trachea was exposed through a vertical incision and cannulated with a 16 gauge blunt cannula that served as an endotracheal tube. The tube was connected to a ventilator for control of ventilation and respiration. The respiratory rate was set to 60 breaths per minute, inspiratory to expiratory time was set to 1:2 and inspiratory flow was 2 liters per minute. A midline sternotomy was performed, the heart exposed and the pericardium resected. The right carotid artery was dissected clean of fascia and care was taken to preserve the adjacent vagus nerve. A polyethelene (PE-50) cannula was inserted via an arteriotomy into the carotid artery and advanced through the ascending aorta into the left ventricle. This ventricular cannula was connected to a high fidelity pressure transducer and digital data acquisition system to record hemodynamic measures. Heart rate (HR), left ventricular systolic blood pressure (SBP), and the maximum rate of change of blood pressure in the left ventricle during isovolemic contraction (dp/dt max) was all recorded. The dp/dt max is the gold standard index of myocardial contractility.
# Following cannulation the rat was stabilized for 30 minutes. Five-second recordings of HR, SBP and dp/dt max were captured every 3 to 5 minutes. SBP and dp/dt max were averaged over all the beats captured in the 5-second interval. Dobutamine (313 mcg/ml), a potent beta agonist inotropic agent, was delivered to the left ventricular free wall through the sternotomy using an infusion pump connected to a 24 gauge IV cannula that was suspended directly over the heart (4 mcg/min, 0.8 ml/hr). […] After 30 minutes the pericardial application of dobutamine was terminated and hemodynamic measurements were recorded for an additional 30 minutes.
smiles,measurement,setting,value
CC(CCc1ccc(O)cc1)NCCc1ccc(O)c(O)c1 (stereo not drawn) [dobutamine],Left ventricular systolic blood pressure / systemic blood pressure,"dobutamine 4 mcg/min for 30 minutes, local pericardial delivery, FIG. 2",increased
same,Heart rate,"dobutamine 4 mcg/min for 30 minutes, topical application to the heart, FIG. 3",increased
same,Contractility (max dp/dt of left ventricular pressure during isovolemic contraction),"dobutamine 313 mcg/ml, 4 mcg/min (0.8 ml/hr) for 30 minutes, applied directly to left ventricular free wall, FIG. 1",increased significantly; also recorded: significantly increased
